Assays:
Assay type in all cases: cell-based
[1] = target: T1, short form of the GPR120 receptor (Homo sapiens, UniProt Q5NUL3); experiment: Human GPR120 DiscoveRx PathHunter Beta-Arrestin Assay, Procedure β-arrestin B (5000 cells/well)
T1 construct: host or cells: PathHunter CHO-K1 GPR120S β-Arrestin Cell Line
T1 sequence (Q5NUL3 1-361): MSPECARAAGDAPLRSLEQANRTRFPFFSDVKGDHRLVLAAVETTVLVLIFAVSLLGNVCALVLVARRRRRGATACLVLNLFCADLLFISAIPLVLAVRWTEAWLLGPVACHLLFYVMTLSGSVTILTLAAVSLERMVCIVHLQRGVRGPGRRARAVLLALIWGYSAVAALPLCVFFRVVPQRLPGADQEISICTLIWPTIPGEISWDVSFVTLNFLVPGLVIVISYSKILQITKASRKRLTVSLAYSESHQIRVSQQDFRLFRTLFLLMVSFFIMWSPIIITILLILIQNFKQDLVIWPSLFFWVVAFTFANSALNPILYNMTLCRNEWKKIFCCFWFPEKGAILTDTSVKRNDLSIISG
Excerpt: The binding of an agonist (medium/long chain fatty acids or small molecule agonists) to the G-protein-coupled receptor GPR120 activates phospholipase C, leading to release of intracellular Ca^+2 through the generation of inositol 1,4,5-trisphosphate (InsP3 or IP3). GPR120 activation can also trigger intracellular signaling via recruitment of β-Arrestin. In the present method, agonist-induced activation of the human GPR120 receptor is monitored through the use of PathHunter CHO-K1 GPR120 β-Arrestin Cell Line engineered by DiscoveRx, as detailed below. The cell lines are designed to co-express both the ProLink/Enzyme Donor (PK)-tagged GPCR and the Enzyme Activator (EA)-tagged β-Arrestin fusion proteins. Upon GPR120 receptor stimulation/activation, the EA-tagged β-Arrestin portion is translocated to the tagged receptor, where the two enzyme fragments are brought within close proximity. Under these conditions, these fragments can interact and form an active Beta-gal enzyme complex through Enzyme Fragment Complementation (EFC). This active Beta-gal complex can enzymatically hydrolyse the substrate to produce a detectable light signal; therefore, activation as a function of agonist concentration can be expressed as an EC50 value to determine relative compound activities. This in vitro assay therefore serves to assess compound agonist activity of the GPR120.
In Procedure β-arrestin B the cells used were PathHunter CHO-K1 GPR120S β-Arrestin Cell Line, expressing the short form of the GPR120 receptor (Accession #NM_181745), with 5000 cells/well.
The selected CHO-K1 GPR120 β-Arrestin cells were cultured in Ham's F12 media supplemented with 10% fetal bovine serum (FBS), 1% Glutamine, 1×p/s, 800 μg/ml G418 and 300 μg/ml Hygromycin B (for selection). Cell stocks were maintained and grown in a sub-confluent state using standard cell culture procedures. The day before the experiment, the cells were harvested with non-enzymatic cell dissociation buffer and re-suspended in complete growth media at the desired concentration. A Corning 384-plate was then seeded with the proper number of cells in a volume of 25 μL, per well. The seeded plates were incubated overnight at 37° C.
On the day of the experiment, the Assay Buffer containing (a) HBSS with Ca^++ and Mg^++, (b) 20 mM HEPES, and (c) 0.1% BSA stabilizer (pH 7.4) was prepared. The growth medium was gently removed from the cell plates and 20 μL of Assay Buffer added to each well. The plate was then incubated at 37° C. for 60 mins. Test compounds were serially diluted in Assay Buffer to desired concentrations (more particularly, to one or more of the following μM concentrations: 25 μM, 12.5 μM, 6.25 μM, 3.125 μM, 1.562 μM, 0.781 μM, 0.391 μM, 0.195 μM, 0.098 μM, 0.049 μM, 0.024 μM, 0.012 μM). Five μl of compound dilution was then added to each well and the plate incubated at 37° C. for 90 mins. The detection reagents were prepared according to the manufacture's instruction. Twelve μL of the detection reagents were added to each well and the plate incubated at room temperature for 60 mins.
The plates were read on an EnVision instrument, using Protocol name: Luminescence, Plate type: 384 Costar, Measurement height: 3 mm, Measurement time: 1 s, Aperture: 384 Plate aperture. The % activity relative to the positive control was calculated using the following equation:
The % Activity values were plotted versus the concentration of test compound and fitted to a sigmoidal dose-response curve with a Hill slope=1 (fixed value) using nonlinear regression with GraphPad Prism 5.0 to calculate the EC50 values. The Fitting Equation was: Y=Bottom+(Top−Bottom)/(1+10^((LogEC50−X)*HillSlope)), where X is the log of the concentration and Y is the response.

[2] = target: T2, Human GPR120 short form (Homo sapiens, UniProt Q5NUL3); experiment: Human GPR120 in Calcium Flux Assay, Procedure Calcium A (2500 cells/well)
T2 construct: expressed in transfected cells
T2 sequence (Q5NUL3 1-361): T1 sequence (Q5NUL3 1-361)
Excerpt: (§1) This in vitro assay serves to assess test compound agonist activity against the short splice variant (SVS with Accession number NM_001195755.1 confirmed by sequencing data) of the GPR120 receptor. The Human Short splice variant #2 (NM_001195755.1) is missing an in-frame coding exon compared to variant 1 (the Human Long splice variant NM_181745.3), resulting in a shorter isoform (GPR120-S) lacking a 16 aa protein segment compared to isoform GPR120-L. The assay platform utilizes HEK-293 cells stably transfected to express the Human GPR120 short form. These cells are first loaded with the Ca^+2 sensitive dye, Fluo-4 NW. Upon stimulation, intracellular released Ca^+2 can bind to the dye and alter its fluorescence intensity. This increase in fluorescence signal, and thus the flux in intracellular [Ca^+2], is detected and quantitated by fluorescence imaging using a FLIPR reader. The effect of the agonist is measured as a function of concentration and used to calculate an EC50 based upon a response curve.
In this procedure 2500 cells/well were employed.
(§2) A Human GPR120 clone (Genbank accession number NM_001195755.1) was placed into the pcDNA3.1 mammalian expression vector carrying the neomycin resistance gene. A stable mammalian cell was generated by placing the above clone into a HEK293 background. Clonal cells responding to long chain fatty acids had expression levels of GPR120 confirmed by RT-qPCR. Human HEK-GPR120 cells were cultured in Dulbecco's Modified Eagle's Medium (DMEM)/F12 medium supplemented with 10% fetal bovine serum (FBS), 1% L-Glutamine and 1% penicillin/streptomycin and 0.5 mg/ml G-418. Cells were split 2 times a week to keep the cells in the log-phase growth.
(§3) In preparation for the assay, HEK cells stably transfected with Human GPR120 (2.5K cells per well in 25 uL growth medium) were seeded into 384-well plates and then incubated overnight (37° C., 5% CO2). The next day, the media was changed to 20 μl assay buffer and the cell starved for 1 h at 37° C. The dye loading solution (2× dye) was prepared using 10 ml assay buffer, 100 μl of 250 mM probenecid, 1 bottle of Component A, and 20 μl of dye in DMSO. Twenty μl of the 2× dye loading buffer was then added to each well. The plates were incubated at 37° C. for 30 min, then at room temperature for an additional 15 minutes, before performing the assay on FLIPR.
(§4) Test compounds were prepared in assay buffer (2 μl of test compound+198 μl assay buffer, final DMSO in assay plate is 0.2%) at the desired concentration, more particularly at 100 μM, 50 μM, 25 μM, 12.5 μM, 6.25 μM, 3.125 μM, 1.562 μM, 0.781 μM, 0.391 μM, 0.195 μM, 0.098 μM, 0.049 μM, 0.024 μM and 0.012 μM.
(§5) The assay was performed on a FLIPR plate reader using the following parameters. Baseline was read for 10 seconds at 1 sec intervals. The program was set to transfer 10 μL of ligand from compound plate to cell plate after baseline reading. Aspiration was executed at: 10 μl/sec speed, 4.6 μl height; Dispensing was executed at: 30 μl/sec speed, 45 μl height. After compound addition, each well was read for 300 sec, with measurements collected at 1 sec intervals.
(§6) The kinetic data from the FLIPR was based upon a 5 minute window for data collection. The fluorescence of each sample well was used for individual calculations of a normalized RFU value, which was defined as maximum response minus the minimum response. The normalized fluorescence reading (RFU) was calculated as follows: RFU=Fmax−Fmin
(§7) The data were fitted to a sigmoidal dose-response curve with a variable Hill slope (<2) using nonlinear regression with GraphPad Prism 5.0 to calculate the EC50 values. The Fitting Equation was: Y=Bottom+(Top−Bottom)/(1+10^((LogEC50−X)*HillSlope)), where X is the log of the concentration and Y is the response.

[3] = target: T2, Human GPR120 short form; experiment: Human GPR120 in Calcium Flux Assay, Procedure Calcium B (4200 cells/well)
Excerpt: as §1
In this procedure 4200 cells/well were employed.
as §2, §3, §4, §5, §6, §7

EC50 [1] [µM] | EC50 [2] [µM] | EC50 [3] [µM] | Structure (SMILES)
0.402 | 0.204 | 0.091 | CCc1nc2c(COc3ccc(CCC(=O)O)c(C)c3C)cc(F)cc2s1 [Compound 105, 3-{4-[(2-Ethyl-6-fluoro-1,3-benzothiazol-4-yl)methoxy]-2,3-dimethylphenyl}propanoic acid]
1.55 | 1.88 | 0.499 | Cc1c(CCC(=O)O)ccc(OCc2cc(Cl)cc3sc(C(C)(C)C)nc23)c1C [Compound 104, 3-{4-[(2-tert-Butyl-6-chloro-1,3-benzothiazol-4-yl)methoxy]-2,3-dimethylphenyl}propanoic acid]
